“Also recorded” adds a separate entry of the source.
What was measured:
[1] = system: CD11c+ draining lymph node cells; assay: In vivo antigen uptake by CD11c+ draining lymph node cells; set-up: species or system mouse; settings: systemic antibody
Protocol: FIG. 7A is a pair of pictures of western blot analysis for phosphorylation of DAP12 and Syk in B7-DC XAb or control antibody-treated mouse DC, as indicated. FIG. 7B is a graph plotting percent CD11c+ inguinal lymph node cells in mice after OVA-FITC was introduced into the footpads of mice treated systemically with isotype control antibody or the MTAb B7-DC XAb (n=3/group). Cells were analyzed by flow cytometry 24 hours after OVA-FITC introduction.
Antigen uptake experiments were carried out as described previously (Radhakrishnan et al. (2005) Proc. Natl. Acad. Sci. U.S.A. 102:11438-11443). Day 5 DC were matured with TLR ligand CpG-ODN for mouse DC, or with pI:C for human DC. The matured cells were incubated with ovalbumin labeled with FITC or APC and control antibody or B7-DC XAb for two hours, washed and analyzed by FACSCALIBUR™ (Becton Dickinson). In studies involving inhibitors, cells were pretreated 30 minutes as indicated or at 10 μM concentration prior to addition of control antibody or B7-DC XAb. In vivo antigen uptake assays involving wild type or TREM-2−/− mice were carried out by intravenous injection of 10 μg of control antibody or B7-DC XAb on three consecutive days (days −1, 0 and +1). Ovalbumin coupled to FITC was injected in the right foot pad at 1 mg/ml in PBS at 100 μA volume. […] The data are expressed as percent green cells (ovalbumin-FITC) that are positive for CD11c.

bone-marrow derived DCs = assay: FRET on DCs expressing Kb-peptide constructs; assay type: cell-based, mouse
Protocol: Kb, Kb-12p9A, Kb-22p3, and Kb-22p12p were placed in a VSV-G pseudotyped pBabe Puro retroviral vector, a vector based on the Maloney Murine Retrovirus. […] Retrovirus was produced by transient […] of 293T cells, and supernatant was concentrated 100:1 by ultracentrifugation on a 10% sucrose cushion. The retrovirus was titered with a colony forming unit assay of HT-1080 cells transduced with limiting dilutions of the supernatant concentrate, followed by selection with 2 ug/mL puromycin. To make DCs, bone marrow was harvested from Balb/c, C57BL6 mice or B7DC−/− mice on a C57BL6 background.
Bone marrow was placed in RPMI+10% Cosmic Calf Serum with 1 ng/mL IL-4 and 10 ng/mL GM-CSF, and plated at 10^6/mL in 24 well plates. On day 2 post-plating, media was aspirated; fresh media was added with 0.5 MOI retrovirus and 4 ug/mL polybrene. Using this system, the peptide constructs were expressed in cultured DCs (FIG. 13).
To directly compare the activity of the MTabs hIgM12 and hIgM22, a series of well-defined biological outputs of treatment of wild type DCs with hIgM12 was used. FRET was used as an output for formation of the multimolecular cap seen upon binding of hIgM12 to wild type DCs. The emission of phycoerythrin (PE) was used to excite APC, which normally emits in the FL4 channel but under FRET emits in the FL3 channel. Experiments were conducted to test FRET of CD40-PE to Class II APC, and CD80-PE to Class II APC (FIG. 14). Either wild type C57BL6 DCs or B7DC−/− DCs transduced with either B7DC or the Kb constructs were used. DCs were stained with the fluorochrome-labeled antibodies, and then treated for 15 minutes at 37° C. with 10 μg/mL of either hIgM12, hIgM22, or 28-13-3.

B7-DC (PD-L2) = settings: cited from earlier work
NF-κB = assay: NFκB activation assay in mouse DC; assay type: cell-based
Protocol: DC of murine or human origin were stimulated with 10 μg/ml of control antibody or the MTAb B7-DC XAb for 30 minutes, while stimulation of oligodendrocytes was achieved by addition of 10 μg/ml of MTAb sHIgM39, 04, or sHIgM22 for same period of time. All groups were fixed and permeabilized using a Cytofix/Cytoperm Kit (BD PharMingen, San Diego, Calif.) for 20 minutes on ice. Subsequently, rabbit antibody against a C terminal peptide of NF-kB (sc372) was added, incubated for 30 minutes at 4° C. and washed three times with Cytoperm Buffer. Anti-rabbit FITC was used to detect the bound sc372 antibody by incubating the cells for 30 minutes (green). Cells were washed three times before the nuclei were stained with DAPI (blue) (Sigma Aldrich). The cells were then harvested from the plate, cytospin slides were made, and cells were visualized using a LSM510 Laser scanning confocal microscope (Carl-Zeiss Inc, Oberkochen, Germany) at 40.times magnification.

matured mouse DC = assay: Antigen uptake assay, matured mouse DC; assay type: cell-based
Protocol: For transducing DC with the virus, 1 ml of supernatant containing the scrambled virus or shDNA containing dominant negative TREM-2 virus was mixed with 2 ml of RPMI. Cytokines were added to a final concentration of 10 ng/ml murine GM-CSF and 1 ng/ml murine IL-4 at day 2 of DC culture. Cells were maintained for another 3 days before using the DC for antigen uptake assay as mentioned above or for analysis of phosphorylation status of DAP12 and Syk proteins.
Antigen uptake experiments were carried out as described previously (Radhakrishnan et al. (2005) Proc. Natl. Acad. Sci. U.S.A. 102:11438-11443). Day 5 DC were matured with TLR ligand CpG-ODN for mouse DC, or with pI:C for human DC. The matured cells were incubated with ovalbumin labeled with FITC or APC and control antibody or B7-DC XAb for two hours, washed and analyzed by FACSCALIBUR™ (Becton Dickinson). In studies involving inhibitors, cells were pretreated 30 minutes as indicated or at 10 μM concentration prior to addition of control antibody or B7-DC XAb. In vivo antigen uptake assays involving wild type or TREM-2−/− mice were carried out by intravenous injection of 10 μg of control antibody or B7-DC XAb on three consecutive days (days −1, 0 and +1). Ovalbumin coupled to FITC was injected in the right foot pad at 1 mg/ml in PBS at […]. The draining lymph node cells were harvested 48 hours after injection of antigen, and stained with anti-mouse CD11c-PE. The data are expressed as percent green cells (ovalbumin-FITC) that are positive for CD11c.

[2] = system: mouse bone marrow-derived DC; assay: IL-6 ELISA of DC supernatants; assay type: cell-based; settings: 48 hours
Protocol: Six day mouse bone marrow-derived DC from wild type or IL-6 KO mice were stimulated with isotype control antibody sHIgM39 or B7-DC XAb. IL-6 levels in culture supernatants were assessed 48 hours later by ELISA.
DC of wild type origin or from CD40 deficient mice were stimulated with 10 μg/ml control antibody or B7-DC XAb for 48 hours. Supernatants from the different treatment groups were harvested and quantified for the amount of IL-6 by sandwich ELISA as per the manufacturer's protocol (eBioscience, San Diego, Calif.).

## B7-DC XAb: human monoclonal IgM from a Waldenstrom's macroglobulinemia patient that binds and cross-links B7-DC on DC
[1]; TREM-2 KO mice
  uptake of labeled ovalbumin by CD11c+ lymph node cells: had no effect on uptake
[1]; wild type mice
  uptake of labeled ovalbumin in lymph nodes: significantly activated uptake of labeled ovalbumin
bone-marrow derived DCs; B7DC−/− DCs with restored B7DC expression
  FRET response: responded as well
bone-marrow derived DCs; B7DC−/− Kb-12p9A DCs
  FRET response: responded
bone-marrow derived DCs; B7DC−/− Kb-22p12p DCs
  FRET response: responded
bone-marrow derived DCs; wild type DCs, 10 μg/mL, 15 minutes
  FRET response (CD40-PE or CD80-PE to Class II APC): responded
B7-DC (PD-L2)
  binding to B7-DC on the surface of DC: binds
NF-κB; DC from CD40 KO mice
  NF-κB activation: absence of NF-κB activation
NF-κB; DC from wild type mice
  NF-κB activation: activating NF-κB
NF-κB; TREM-2 KO cells
  NF-κB mobilization: mobilization of NF-κB
Matured mouse DC; DC from CD40 KO mice
  antigen uptake: displayed enhanced antigen uptake
Matured mouse DC; DC transduced with scrambled shDNA
  ovalbumin uptake by matured DC: enhanced ovalbumin uptake
Matured mouse DC; TREM-2 KO DC
  ovalbumin uptake by matured DC: did not regain the ability to take up ovalbumin
[2]; DC from CD40 KO mice
  IL-6 secretion: absence of NF-κB activation and IL-6 secretion; also recorded: do not secrete IL-6
[2]; DC from wild type mice
  IL-6 secretion: producing IL-6

— patent publication US11274131B2, “IgM-mediated receptor clustering and cell modulation” (MAYO FOUNDATION FOR MEDICAL EDUCATION AND RESEARCH, priority 2007, dated 2022)
